According to ChEMBL document CHEMBL1201862, “PubChem BioAssay data set” (2004):
Activity calls are given as the source filed them.

Assays:
BJ [1] = experiment: cytotoxicity toward BJ-TERT fibroblasts, dose response, cell-based, RAS-independent, luminescence (AID 1933); type: functional; conditions: Homo sapiens
BJ [2] = experiment: cytotoxicity toward BJ-TERT-LT-ST fibroblasts, dose response, cell-based, RAS-independent, luminescence (AID 1935); type: functional; conditions: Homo sapiens;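 also: BJ fibroblasts immortalized with TERT plus LT and ST oncogenes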
BJ [3] = experiment: cells; type: functional, cell-based; conditions: Homo sapiens
[4] = cytotoxicity toward DRD oncogenic fibroblasts, dose response, cell-based, non-viral oncogenic, luminescence (AID 1934); type: functional; conditions: Homo sapiens
Protein skinhead-1 = target: T1, Protein skinhead-1 (Caenorhabditis elegans, UniProt P34707); type: functional
T1 sequence (P34707 whole entry): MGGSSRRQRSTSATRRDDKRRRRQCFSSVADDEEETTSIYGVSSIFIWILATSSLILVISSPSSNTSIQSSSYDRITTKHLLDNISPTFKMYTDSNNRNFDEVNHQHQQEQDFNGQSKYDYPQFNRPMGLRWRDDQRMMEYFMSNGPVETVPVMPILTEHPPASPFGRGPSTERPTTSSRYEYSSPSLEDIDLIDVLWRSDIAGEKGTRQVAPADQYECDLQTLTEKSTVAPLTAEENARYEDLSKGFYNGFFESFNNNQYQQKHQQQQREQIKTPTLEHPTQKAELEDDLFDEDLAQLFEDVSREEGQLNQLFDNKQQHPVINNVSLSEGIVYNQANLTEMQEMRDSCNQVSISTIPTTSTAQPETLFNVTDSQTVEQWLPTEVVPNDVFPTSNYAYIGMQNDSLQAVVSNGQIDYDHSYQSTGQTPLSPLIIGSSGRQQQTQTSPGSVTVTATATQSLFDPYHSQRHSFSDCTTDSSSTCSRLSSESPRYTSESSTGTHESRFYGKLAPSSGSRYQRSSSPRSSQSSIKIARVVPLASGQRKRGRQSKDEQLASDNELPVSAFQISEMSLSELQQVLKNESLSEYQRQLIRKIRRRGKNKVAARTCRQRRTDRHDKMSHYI

[5] = target: Voltage-dependent T-type calcium channel subunit alpha-1H (Homo sapiens, UniProt O95180); type: functional;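 also: channel activity triggered by adding a high calcium stimulation buffer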
Chain of Voltage-dependent T-type calcium channel subunit alpha-1H (O95180 whole entry): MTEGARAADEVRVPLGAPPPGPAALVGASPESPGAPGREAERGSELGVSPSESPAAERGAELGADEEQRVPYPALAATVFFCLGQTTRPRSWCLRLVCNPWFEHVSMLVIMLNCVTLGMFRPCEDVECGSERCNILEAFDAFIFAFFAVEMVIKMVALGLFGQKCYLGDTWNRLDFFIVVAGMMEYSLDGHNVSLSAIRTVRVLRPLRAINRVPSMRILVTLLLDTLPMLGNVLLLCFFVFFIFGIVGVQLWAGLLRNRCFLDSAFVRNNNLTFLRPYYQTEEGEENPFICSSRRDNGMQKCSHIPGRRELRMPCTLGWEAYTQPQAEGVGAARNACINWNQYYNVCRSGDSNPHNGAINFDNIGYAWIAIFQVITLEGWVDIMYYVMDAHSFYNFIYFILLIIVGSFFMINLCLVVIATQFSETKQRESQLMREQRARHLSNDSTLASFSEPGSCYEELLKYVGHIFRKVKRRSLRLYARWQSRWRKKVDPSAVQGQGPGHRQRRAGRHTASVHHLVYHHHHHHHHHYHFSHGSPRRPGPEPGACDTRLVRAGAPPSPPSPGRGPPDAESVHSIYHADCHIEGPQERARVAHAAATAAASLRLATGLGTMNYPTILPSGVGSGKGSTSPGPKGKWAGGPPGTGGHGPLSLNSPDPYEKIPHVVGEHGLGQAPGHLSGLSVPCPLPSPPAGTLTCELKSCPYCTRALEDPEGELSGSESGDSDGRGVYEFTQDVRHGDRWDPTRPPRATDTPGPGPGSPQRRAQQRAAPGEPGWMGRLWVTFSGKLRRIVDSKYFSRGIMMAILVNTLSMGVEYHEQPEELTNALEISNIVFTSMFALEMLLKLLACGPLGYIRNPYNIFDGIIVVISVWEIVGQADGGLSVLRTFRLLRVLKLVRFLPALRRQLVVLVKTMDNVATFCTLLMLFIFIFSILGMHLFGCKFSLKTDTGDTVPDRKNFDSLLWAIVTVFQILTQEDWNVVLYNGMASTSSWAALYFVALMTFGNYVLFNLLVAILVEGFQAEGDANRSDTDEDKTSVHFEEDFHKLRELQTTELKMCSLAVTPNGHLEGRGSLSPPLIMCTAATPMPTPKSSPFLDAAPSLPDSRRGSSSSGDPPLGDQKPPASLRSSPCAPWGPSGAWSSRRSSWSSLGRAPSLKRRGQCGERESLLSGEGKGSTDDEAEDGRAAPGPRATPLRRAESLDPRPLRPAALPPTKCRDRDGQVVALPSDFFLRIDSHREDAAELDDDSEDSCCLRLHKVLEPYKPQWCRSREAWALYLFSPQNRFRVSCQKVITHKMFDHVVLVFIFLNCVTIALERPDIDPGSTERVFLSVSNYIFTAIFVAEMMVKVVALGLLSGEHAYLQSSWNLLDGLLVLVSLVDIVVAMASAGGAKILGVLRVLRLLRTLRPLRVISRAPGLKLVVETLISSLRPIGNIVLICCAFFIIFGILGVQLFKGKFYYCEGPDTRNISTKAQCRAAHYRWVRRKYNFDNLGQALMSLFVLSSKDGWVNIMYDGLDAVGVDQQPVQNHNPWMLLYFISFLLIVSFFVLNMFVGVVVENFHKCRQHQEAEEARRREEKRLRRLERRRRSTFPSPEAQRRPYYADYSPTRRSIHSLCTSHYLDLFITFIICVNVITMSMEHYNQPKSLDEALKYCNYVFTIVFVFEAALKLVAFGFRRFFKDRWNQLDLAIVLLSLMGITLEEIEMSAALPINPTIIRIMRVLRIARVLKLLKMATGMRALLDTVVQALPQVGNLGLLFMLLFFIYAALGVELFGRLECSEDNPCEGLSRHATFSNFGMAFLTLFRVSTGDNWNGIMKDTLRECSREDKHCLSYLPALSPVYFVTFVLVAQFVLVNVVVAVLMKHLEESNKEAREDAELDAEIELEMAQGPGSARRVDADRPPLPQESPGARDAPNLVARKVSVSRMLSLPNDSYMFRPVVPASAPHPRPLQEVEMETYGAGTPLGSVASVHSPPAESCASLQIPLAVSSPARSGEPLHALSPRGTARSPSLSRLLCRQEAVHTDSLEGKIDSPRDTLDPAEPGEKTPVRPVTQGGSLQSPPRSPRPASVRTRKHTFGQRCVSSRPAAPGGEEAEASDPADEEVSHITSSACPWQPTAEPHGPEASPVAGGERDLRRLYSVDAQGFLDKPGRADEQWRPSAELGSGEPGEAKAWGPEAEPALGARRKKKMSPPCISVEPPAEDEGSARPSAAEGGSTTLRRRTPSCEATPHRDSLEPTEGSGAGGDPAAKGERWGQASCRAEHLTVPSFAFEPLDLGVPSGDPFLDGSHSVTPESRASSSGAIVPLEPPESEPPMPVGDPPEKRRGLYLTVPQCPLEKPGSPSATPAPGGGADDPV

[6] = C. albicans growth with fluconazole, confirmation, fluorescence, retest (AID 2467); type: functional, cell-based
[7] = target: T2, Adenosylmethionine-8-amino-7-oxononanoate aminotransferase (Mycobacterium tuberculosis, UniProt P9WQ81); experiment: Mycobacterium tuberculosis BioA enzyme inhibitor Measured in Biochemical System Using Plate Reader - 2163-02_Inhibitor_Dose_CherryPick_Activity.; type: functional, Mycobacterium tuberculosis UT205
T2 sequence (P9WQ81 whole entry): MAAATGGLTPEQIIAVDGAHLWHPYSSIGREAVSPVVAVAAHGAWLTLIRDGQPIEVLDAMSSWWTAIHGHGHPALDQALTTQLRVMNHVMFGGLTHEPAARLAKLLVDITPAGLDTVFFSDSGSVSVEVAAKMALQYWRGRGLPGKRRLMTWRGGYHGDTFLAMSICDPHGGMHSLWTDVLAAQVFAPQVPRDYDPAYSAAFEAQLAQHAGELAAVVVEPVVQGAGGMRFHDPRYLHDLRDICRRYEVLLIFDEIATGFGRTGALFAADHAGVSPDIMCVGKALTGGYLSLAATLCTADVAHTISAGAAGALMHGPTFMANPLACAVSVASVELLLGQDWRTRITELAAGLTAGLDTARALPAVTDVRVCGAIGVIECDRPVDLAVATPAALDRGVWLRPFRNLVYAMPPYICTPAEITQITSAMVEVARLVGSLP

[8] = NIH-3T3 fibroblast cytotoxicity, dose response, cytotoxicity control, cell-based, fluorescence, Alamar Blue, secondary assay (AID 2327); type: functional;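 also: NIH-3T3 mouse fibroblasts cultured with fluconazole at 8 µg/mL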
[9] = target: T3, Ubiquitin-conjugating enzyme E2 N (Homo sapiens, UniProt P61088); type: functional;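 also: Dose-response confirmation in a TR-FRET assay detecting UBC13-driven polyubiquitin chain formation, inhibition measured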
T3 sequence (P61088 whole entry): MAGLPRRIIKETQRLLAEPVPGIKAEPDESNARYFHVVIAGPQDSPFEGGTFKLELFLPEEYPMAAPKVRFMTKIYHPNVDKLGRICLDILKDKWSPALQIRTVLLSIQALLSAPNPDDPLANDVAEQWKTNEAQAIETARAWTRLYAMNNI

Fatty acid synthase [10] = target: T4, Fatty acid synthase (Homo sapiens, UniProt P49327); experiment: FAS thioesterase domain inhibitors, dose response, biochemical, kinetic fluorescence intensity (AID 624326); type: functional;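 also: rate of fluorescence rise from hydrolysis of a fluorogenic O-methyl fluorescein ester substrate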
T4 sequence (P49327 whole entry, the tested form may be a part): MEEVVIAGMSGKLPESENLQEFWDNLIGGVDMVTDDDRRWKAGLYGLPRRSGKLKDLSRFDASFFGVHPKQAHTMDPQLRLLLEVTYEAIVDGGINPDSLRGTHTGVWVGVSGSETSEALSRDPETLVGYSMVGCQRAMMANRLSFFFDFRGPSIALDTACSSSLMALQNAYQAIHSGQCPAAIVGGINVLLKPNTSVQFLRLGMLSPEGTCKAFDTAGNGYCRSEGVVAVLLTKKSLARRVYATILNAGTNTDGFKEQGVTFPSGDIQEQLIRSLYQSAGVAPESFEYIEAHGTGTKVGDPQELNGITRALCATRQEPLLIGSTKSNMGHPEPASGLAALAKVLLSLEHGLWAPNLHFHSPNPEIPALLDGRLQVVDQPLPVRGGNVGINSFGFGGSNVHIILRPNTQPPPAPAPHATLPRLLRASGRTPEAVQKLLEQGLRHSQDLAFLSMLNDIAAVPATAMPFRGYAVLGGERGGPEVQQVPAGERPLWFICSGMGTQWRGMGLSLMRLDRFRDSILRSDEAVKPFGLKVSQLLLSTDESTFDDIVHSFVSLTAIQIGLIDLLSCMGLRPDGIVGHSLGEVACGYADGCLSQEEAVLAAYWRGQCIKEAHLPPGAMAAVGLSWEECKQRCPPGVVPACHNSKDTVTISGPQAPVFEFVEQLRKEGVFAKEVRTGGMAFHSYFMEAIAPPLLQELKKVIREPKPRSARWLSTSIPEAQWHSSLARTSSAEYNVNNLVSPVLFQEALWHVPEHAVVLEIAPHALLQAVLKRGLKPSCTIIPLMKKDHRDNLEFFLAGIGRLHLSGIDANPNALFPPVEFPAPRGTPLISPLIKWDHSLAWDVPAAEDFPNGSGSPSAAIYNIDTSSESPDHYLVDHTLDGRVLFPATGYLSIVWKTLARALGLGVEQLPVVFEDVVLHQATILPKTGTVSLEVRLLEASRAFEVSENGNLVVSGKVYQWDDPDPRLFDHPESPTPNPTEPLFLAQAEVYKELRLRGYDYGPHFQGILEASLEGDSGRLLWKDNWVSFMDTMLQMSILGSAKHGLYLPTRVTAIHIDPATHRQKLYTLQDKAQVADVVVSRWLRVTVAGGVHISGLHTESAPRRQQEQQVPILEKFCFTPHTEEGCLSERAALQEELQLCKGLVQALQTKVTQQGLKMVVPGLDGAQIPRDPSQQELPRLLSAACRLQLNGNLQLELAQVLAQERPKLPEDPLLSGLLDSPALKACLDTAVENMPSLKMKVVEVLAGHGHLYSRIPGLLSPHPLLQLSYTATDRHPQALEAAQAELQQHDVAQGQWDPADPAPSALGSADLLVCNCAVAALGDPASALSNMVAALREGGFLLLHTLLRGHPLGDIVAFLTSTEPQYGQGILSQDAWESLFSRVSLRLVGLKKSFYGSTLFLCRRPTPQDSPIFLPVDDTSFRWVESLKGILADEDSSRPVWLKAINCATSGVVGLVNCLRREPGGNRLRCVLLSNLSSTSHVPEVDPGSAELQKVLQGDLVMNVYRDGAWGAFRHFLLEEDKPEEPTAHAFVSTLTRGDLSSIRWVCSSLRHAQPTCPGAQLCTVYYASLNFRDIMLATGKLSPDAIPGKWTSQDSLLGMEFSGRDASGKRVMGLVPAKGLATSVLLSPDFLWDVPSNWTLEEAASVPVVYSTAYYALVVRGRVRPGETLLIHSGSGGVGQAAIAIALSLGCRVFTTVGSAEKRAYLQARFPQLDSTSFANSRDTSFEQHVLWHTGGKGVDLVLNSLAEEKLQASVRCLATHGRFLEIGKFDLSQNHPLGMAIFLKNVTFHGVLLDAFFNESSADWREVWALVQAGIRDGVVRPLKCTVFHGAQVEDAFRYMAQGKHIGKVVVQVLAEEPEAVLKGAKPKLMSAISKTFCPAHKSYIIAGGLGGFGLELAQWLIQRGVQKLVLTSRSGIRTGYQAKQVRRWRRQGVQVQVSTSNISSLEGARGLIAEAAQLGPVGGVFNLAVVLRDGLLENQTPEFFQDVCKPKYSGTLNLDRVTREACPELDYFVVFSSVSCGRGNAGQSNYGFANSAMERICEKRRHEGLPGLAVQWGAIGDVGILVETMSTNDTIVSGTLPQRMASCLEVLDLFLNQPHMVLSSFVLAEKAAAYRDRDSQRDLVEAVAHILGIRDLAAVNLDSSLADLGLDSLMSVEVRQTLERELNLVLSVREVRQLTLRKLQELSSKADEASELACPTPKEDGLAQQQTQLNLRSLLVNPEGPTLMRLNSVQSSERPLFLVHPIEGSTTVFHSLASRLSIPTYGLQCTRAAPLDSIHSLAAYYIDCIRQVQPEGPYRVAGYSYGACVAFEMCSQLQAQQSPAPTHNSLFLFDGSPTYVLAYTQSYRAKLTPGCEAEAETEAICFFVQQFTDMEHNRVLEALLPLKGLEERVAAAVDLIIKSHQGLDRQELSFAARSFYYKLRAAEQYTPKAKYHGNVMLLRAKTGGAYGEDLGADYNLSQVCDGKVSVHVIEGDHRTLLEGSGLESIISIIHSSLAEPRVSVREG

Fatty acid synthase [11] = target: T4, Fatty acid synthase; experiment: FAS thioesterase domain inhibitors, dose response, biochemical, endpoint fluorescence intensity, uHTS hits (AID 624327); type: functional;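 also: fluorescence from hydrolysis of an O-methyl fluorescein acyl ester substrate by the enzyme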
[12] = Luminescence Cell-Based Dose Response HTS to Identify Inhibitors of 5'UTR Stem-Loop Driven Prion Protein mRNA Translation in H4 Neuroglioblastoma Cells. [Related pubchem assays: 1827 (Project Summary), 1813 (Primary HTS)]; type: functional
[13] = inhibitors of SNCA 5'UTR-driven reporter translation, confirmation, H4 neuroglioma cells, luminescence (AID 1988); type: functional, cell-based
[14] = inhibitors of firefly luciferase expression or activity, dose response, H4 neuroglioma cells, luminescence (AID 1990); type: functional, cell-based
[15] = Luminescence Cell-Based Dose Retest to Confirm Inhibitors of Cancer Stem Cells. [Related pubchem assays (depositor defined):AID2717, AID2721]; type: functional; conditions: Homo sapiens
[16] = intracellular Trypanosoma cruzi inhibitors in host cells – cell-based, plate reader, cherry-pick samples, set 3, dose response (AID 651818); type: functional;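 also: compounds incubated with infected cells for about four days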
[17] = Luminescence-based cell-based high throughput dose response assay to identify activators of the DAF-12 from the parasite S. stercoralis (ssDAF-12).; type: functional

Structure (SMILES): CCOc1cc(C2C(C#N)=C(N)OC(C)=C2C(C)=O)c(Br)c(Br)c1OC(C)C (stereo not given)
- EC50 (BJ [1]): 2.17 µM (active)
- EC50 (BJ [2]): 2.72 µM (inconclusive)
- EC50 (BJ [3]): 14 µM (inconclusive)
- EC50 [4]: 3.46 µM (active)

Structure (SMILES): O=C(CSc1ccc(Cl)cc1)N1CCN(c2ncc(C(F)(F)F)cc2Cl)CC1
- IC50 (Protein skinhead-1): > 100 µM (inactive)
- EC50 [5]: 5.86 µM (active)

Structure (SMILES): O=C(Nc1cccc(F)c1)C1CCN(c2nnnn2-c2ccccc2)CC1
- EC50 [5]: 53.6 µM (active)

Structure (SMILES): O=C(C[n+]1cc(-c2ccc(Cl)cc2)n2c1CCC2)N1c2ccccc2Sc2ccccc21
- EC50 [6]: > 38 µM (not active)
- AC50 [7]: 6.34 µM (active)
- EC50 [8]: > 160 µM (inconclusive)

Structure (SMILES): NC(=S)N=Nc1c(O)n(CCCl)c2ccc(Br)cc12
- IC50 [9]: > 20 µM (inactive)

Structure (SMILES): CCOc1ccc(N(C(=O)c2snc(C(N)=O)c2N)C(C(=O)NCC2CCCO2)c2ccc(C)o2)cc1 (stereo not given)
- IC50 [9]: > 20 µM (inactive)

Structure (SMILES): Cc1nc2sc(C(c3ccc(Cl)cc3)N3CCN(c4ccccc4F)CC3)c(O)n2n1 (stereo not given)
- AC50 [7]: 1.69 µM (active)

Structure (SMILES): COc1ccc(-c2nc3cnccn3c2Nc2ccc3c(c2)OCO3)cc1
- AC50 [7]: 0.702 µM (active)

Structure (SMILES): O=C(NCc1ccc(F)cc1)C(C(=O)NCc1ccc(F)cc1)c1ncc(C(F)(F)F)cc1Cl
- IC50 (Fatty acid synthase [10]): 11.8 µM (active)
- IC50 (Fatty acid synthase [11]): 7.79 µM (active)

Structure (SMILES): CCOc1ccc(-n2c(SCc3ccc([N+](=O)[O-])cc3)nnc2-c2ccccc2)cc1
- EC50 [12]: 69.4 µM (active)
- IC50 (Fatty acid synthase [10]): 5.2 µM (active)
- EC50 [13]: 24.9 µM (active)
- IC50 (Fatty acid synthase [11]): 6.83 µM (active)
- EC50 [14]: 15.5 µM (active)

Structure (SMILES): O=C(COC(=O)c1cc([N+](=O)[O-])ccc1N1CCOCC1)c1ccc(F)cc1
- IC50 (Fatty acid synthase [10]): 9.03 µM (active)
- IC50 (Fatty acid synthase [11]): 5.45 µM (active)

Structure (SMILES): O=C(CSc1ncn(-c2ccccc2)n1)Nc1ccc(Br)cn1
- EC50 [5]: 5.67 µM (active)

Structure (SMILES): O=[N+]([O-])c1ccc(Sc2n[nH]c(-c3ccc(Cl)cc3Cl)n2)nc1
- IC50 (Fatty acid synthase [10]): 8.25 µM (active)
- IC50 (Fatty acid synthase [11]): 7.15 µM (active)

Structure (SMILES): CC(=O)CSc1nnc(CSc2ncccn2)n1C1CCCCC1
- AC50 [7]: 13.9 µM (active)

Structure (SMILES): CCN(Cc1ccccc1)C(=O)CCc1nc(-c2ccc(C)cc2)no1
- EC50 [5]: 4.8 µM (active)

Structure (SMILES): CCC(C)(C)NC(=O)CN(C(=O)c1snc(C(N)=O)c1N)c1ccc2c(c1)OCCO2
- IC50 [9]: > 20 µM (inactive)

Structure (SMILES): COc1cc(OC)cc(-c2sc3ccc(OC)cc3c2C#CC2(N)CCCCC2)c1
- IC50 [9]: > 20 µM (inactive)
- AC50 [15]: 2.96 µM (active)

Structure (SMILES): O=C(CSc1nnc(-c2ccncc2)n1-c1ccc(Cl)cc1)NCc1cccs1
- AC50 [7]: 9.86 µM (active)

Structure (SMILES): C[C@@H]1CN([C@@H](C)CO)C(=O)c2cccc(NS(=O)(=O)c3ccc(Cl)cc3)c2O[C@@H]1CN(C)Cc1ccc(Oc2ccccc2)cc1
- AC50 [16]: 4.87 µM (active)

Structure (SMILES): C[C@H]1CN([C@@H](C)CO)C(=O)c2cccc(NC(=O)Nc3ccccc3)c2O[C@H]1CN(C)C(=O)Nc1ccc2c(c1)OCO2
- AC50 [16]: 20 µM (inactive)

Structure (SMILES): C[C@H](CO)N1C[C@H](C)[C@H](CN(C)Cc2ccc(Cl)c(Cl)c2)Oc2c(NC(=O)c3nc4ccccc4s3)cccc2C1=O
- AC50 [16]: 6.38 µM (active)

Structure (SMILES): C[C@@H]1CN([C@H](C)CO)C(=O)c2cc(NC(=O)Nc3ccc4c(c3)OCO4)ccc2O[C@@H]1CN(C)Cc1ccc(-c2ccccc2)cc1
- AC50 [16]: 2.72 µM (active)

Structure (SMILES): COc1ccc(NC(=O)Nc2ccc3c(c2)CC(=O)N([C@@H](C)CO)C[C@H](C)[C@@H](CN(C)Cc2ccc(C(F)(F)F)cc2)O3)cc1
- AC50 [16]: 5.55 µM (active)

Structure (SMILES): C[C@@H]1CN([C@@H](C)CO)C(=O)Cc2cc(NC(=O)Nc3ccccc3)ccc2O[C@@H]1CN(C)Cc1ccc(C(=O)Nc2ccccc2N)cc1
- AC50 [16]: 2.04 µM (active)

Structure (SMILES): Nc1nc(=O)n(C2CC(O)C(CO)O2)cc1Cl (stereo not given)
- IC50 [17]: > 67.6 µM (inactive)

Structure (SMILES): COc1ccccc1N1CCN(CC(O)COc2cccc3ccccc23)CC1 (stereo not given) [NAFTOPIDIL]
- EC50 [5]: 3.72 µM (active)
